The structures appear in SMILES notation.

Assay [1] has as its target T1, human GPR139 receptor (Homo sapiens, UniProt Q6DWJ6).
T1 construct: expressed in transfected cells; host or cells: T-REx-CHO (Thermo Fisher Scientific), doxycycline-induced
T1 sequence (Q6DWJ6 1-353): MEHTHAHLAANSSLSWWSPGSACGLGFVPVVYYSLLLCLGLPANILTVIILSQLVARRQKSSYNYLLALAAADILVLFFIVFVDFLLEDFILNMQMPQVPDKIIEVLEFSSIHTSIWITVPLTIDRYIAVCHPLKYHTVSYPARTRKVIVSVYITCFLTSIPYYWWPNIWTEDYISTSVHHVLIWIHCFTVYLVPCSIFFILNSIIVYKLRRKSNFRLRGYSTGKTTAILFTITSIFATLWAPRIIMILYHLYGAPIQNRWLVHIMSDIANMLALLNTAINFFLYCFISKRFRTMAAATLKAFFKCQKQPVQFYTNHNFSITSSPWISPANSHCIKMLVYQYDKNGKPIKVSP
The assay is described as follows: Measurement of GPR139 Activation Via Calcium Signaling (FLIPR, T-REx-CHO cells). It counts as cell-based. To be noted: T-REx-CHO cells stably expressing human GPR139, 11-point dose response, 10 μM maximum concentration, read-out: GPR139 Potency (pEC50) (converted). Put shortly: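 T-REx-CHO cells stably carrying human GPR139 under tetracycline control, induced with 2 μg/mL doxycycline for 17 h at 37 °C, loaded 40 min with Calcium 5 dye plus probenecid in HBSS/HEPES pH 7.4. Agonist added as 11-point series (10 μM top); fluorescence read 1 min; pEC50 from four-parameter fit.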

Assay [2] concerns the target T1, human GPR139 receptor. Put plainly: GPR139 Competition Binding (membrane-based, tritium-labeled ligand). To be noted: T-REx-CHO membranes with human GPR139; 6.5 nM tritium-labeled ligand; 11-point curve, 30 μM maximum concentration; read-out: GPR139 Binding Affinity (pKi) (converted). The method, boiled down: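 Membranes came from doxycycline-induced T-REx-CHO cells expressing human GPR139. They were incubated 20 min at room temperature with 6.5 nM tritiated ligand and compound (11 points, top 30 μM) in HEPES pH 7.3 buffer with MgCl2/CaCl2. Filter-bound counts gave Ki by four-parameter fit, reported as pKi.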

On to `Cc1nn(C2CCC2)c2cnn(CC(=O)N[C@@H](C)c3ccc(C(F)(F)F)cc3)c(=O)c12` [Example 155, (S)-2-(1-cyclobutyl-3-methyl-4-oxo-1,4-dihydro-5H-pyrazolo[3,4-d]pyridazin-5-yl)-N-(1-(4-(trifluoromethyl)phenyl)ethyl)acetamide], for which the EC50 at human GPR139 receptor [1] is 87.1 nM. Moreover, on human GPR139 receptor [2], the Ki was 178 nM.
The corresponding values for `Cc1nn(C23CC(C2)C3)c2cnn(CC(=O)N[C@@H](C)c3ccc(C(F)(F)F)cc3)c(=O)c12` [Example 156, (S)-2-(1-(bicyclo[1.1.1]pentan-1-yl)-3-methyl-4-oxo-1,4-dihydro-5H-pyrazolo[3,4-d]pyridazin-5-yl)-N-(1-(4-(trifluoromethyl)phenyl)ethyl)acetamide] are 107 nM and 331 nM.
Take `Cc1nn(C(C)(C)C)c2cnn(CC(=O)N[C@@H](C)c3ccc(C(F)(F)F)cc3)c(=O)c12` [Example 157, (S)-2-(1-(tert-butyl)-3-methyl-4-oxo-1,4-dihydro-5H-pyrazolo[3,4-d]pyridazin-5-yl)-N-(1-(4-(trifluoromethyl)phenyl)ethyl)acetamide]: the EC50 on human GPR139 receptor [1] is 126 nM. Also, at human GPR139 receptor [2], the Ki is 234 nM.
The corresponding values for `Cc1ccc([C@H](C)NC(=O)Cn2ncc3c(C4CC4)cn(C)c3c2=O)cc1` [Example 158, (S)-2-(3-cyclopropyl-1-methyl-7-oxo-1,7-dihydro-6H-pyrrolo[2,3-d]pyridazin-6-yl)-N-(1-(p-tolyl)ethyl)acetamide] are 57.5 nM and 47.9 nM.
For `C[C@H](NC(=O)Cn1ncc2c(C3CC3)cn(C)c2c1=O)c1ccc(C(F)(F)F)cc1` [Example 159, (S)-2-(3-cyclopropyl-1-methyl-7-oxo-1,7-dihydro-6H-pyrrolo[2,3-d]pyridazin-6-yl)-N-(1-(4-(trifluoromethyl)phenyl)ethyl)acetamide] the same measures were 100 nM and 79.4 nM.
The corresponding values for `Cc1nn(C2CC2)c2cnn(CC(=O)N[C@H](C)c3ccc(C(F)(F)F)cc3)c(=O)c12` [Example 160, (R)-2-(1-cyclopropyl-3-methyl-4-oxo-1,4-dihydro-5H-pyrazolo[3,4-d]pyridazin-5-yl)-N-(1-(4-(trifluoromethyl)phenyl)ethyl)acetamide] are 295 nM and 30200 nM.
For `C[C@H](NC(=O)Cn1ncc2ccn(C)c2c1=O)c1ccc(Cl)cc1` [Example 161, (S)—N-(1-(4-chlorophenyl)ethyl)-2-(1-methyl-7-oxo-1,7-dihydro-6H-pyrrolo[2,3-d]pyridazin-6-yl)acetamide], at human GPR139 receptor [1], the EC50 is 8.51 nM. For the same compound, the Ki on human GPR139 receptor [2] was 105 nM.
The corresponding values for `Cc1ccc([C@H](C)NC(=O)Cn2ncc3ccn(C)c3c2=O)cc1` [Example 162, (S)-2-(1-methyl-7-oxo-1,7-dihydro-6H-pyrrolo[2,3-d]pyridazin-6-yl)-N-(1-(p-tolyl)ethyl)acetamide] are 13.2 nM and 195 nM.
The corresponding values for `COc1ccc([C@H](C)NC(=O)Cn2ncc3ccn(C)c3c2=O)cc1` [Example 163, (S)—N-(1-(4-methoxyphenyl)ethyl)-2-(1-methyl-7-oxo-1,7-dihydro-6H-pyrrolo[2,3-d]pyridazin-6-yl)acetamide] are 15.5 nM and 1780 nM.
The corresponding values for `Cc1ccc([C@H](C)NC(=O)Cn2ncc3ccn(C)c3c2=O)c(F)c1` [Example 165, (S)—N-(1-(2-fluoro-4-methylphenyl)ethyl)-2-(1-methyl-7-oxo-1,7-dihydro-6H-pyrrolo[2,3-d]pyridazin-6-yl)acetamide] are 12.6 nM and 70.8 nM.
With `[2H]C([2H])([2H])c1ccc([C@H](C)NC(=O)Cn2ncc3c(cnn3C(C)C)c2=O)cc1` [Example 166, (S)-2-(1-isopropyl-4-oxo-1,4-dihydro-5H-pyrazolo[3,4-d]pyridazin-5-yl)-N-(1-(4-(methyl-d3)phenyl)ethyl)acetamide], the EC50 at human GPR139 receptor [1] was 53.7 nM. Also, the Ki at human GPR139 receptor [2] was 2340 nM.
Take `[2H]C([2H])([2H])c1ccc([C@H](C)NC(=O)Cn2ncc3c(c(C)nn3C3CC3)c2=O)cc1` [Example 167, (S)-2-(1-cyclopropyl-3-methyl-4-oxo-1,4-dihydro-5H-pyrazolo[3,4-d]pyridazin-5-yl)-N-(1-(4-(methyl-d3)phenyl)ethyl)acetamide]: on human GPR139 receptor [1], the EC50 is 63.1 nM. The Ki at human GPR139 receptor [2] was 316 nM.
The corresponding values for `[2H]C([2H])([2H])c1ccc([C@H](C)NC(=O)Cn2ncc3c(c(C)nn3C(C)C)c2=O)cc1` [Example 168, (S)-2-(1-isopropyl-3-methyl-4-oxo-1,4-dihydro-5H-pyrazolo[3,4-d]pyridazin-5-yl)-N-(1-(4-(Methyl-d3)phenyl)ethyl)acetamide] are 43.7 nM and 380 nM.
For `Cc1ccc([C@H](C)NC(=O)Cn2ncc3c(c(C(F)(F)F)nn3C)c2=O)cc1` [Example 169, (S)-2-(1-methyl-4-oxo-3-(trifluoromethyl)-1,4-dihydro-5H-pyrazolo[3,4-d]pyridazin-5-yl)-N-(1-(p-tolyl)ethyl)acetamide] the same measures were 51.3 nM and 75.9 nM.
As to `Cc1ccc([C@H](C)NC(=O)Cn2ncc3c(c(C(F)(F)F)nn3C)c2=O)c(F)c1` [Example 170, (S)—N-(1-(2-fluoro-4-methylphenyl)ethyl)-2-(1-methyl-4-oxo-3-(trifluoromethyl)-1,4-dihydro-5H-pyrazolo[3,4-d]pyridazin-5-yl)acetamide], the EC50 at human GPR139 receptor [1] was 72.4 nM. The Ki at human GPR139 receptor [2] was 20.9 nM.
For `Cc1ccc([C@H](C)NC(=O)Cn2ncc3c(c(C(F)(F)F)nn3C)c2=O)cc1F` [Example 171, (S)—N-(1-(3-fluoro-4-methylphenyl)ethyl)-2-(1-methyl-4-oxo-3-(trifluoromethyl)-1,4-dihydro-5H-pyrazolo[3,4-d]pyridazin-5-yl)acetamide] the same measures were 41.7 nM and 24 nM.
The corresponding values for `C[C@H](NC(=O)Cn1ncc2c(c(C(F)(F)F)nn2C)c1=O)c1ccc(C(F)(F)F)cc1` [Example 172, (S)-2-(1-methyl-4-oxo-3-(trifluoromethyl)-1,4-dihydro-5H-pyrazolo[3,4-d]pyridazin-5-yl)-N-(1-(4-(trifluoromethyl)phenyl)ethyl)acetamide] are 93.3 nM and 178 nM.
Consider `[2H]C([2H])([2H])c1ccc([C@H](C)NC(=O)Cn2ncc3ccn(C)c3c2=O)cc1` [Example 174, (S)-2-(1-methyl-7-oxo-1,7-dihydro-6H-pyrrolo[2,3-d]pyridazin-1-yl)-N-(1-(4-(methyl-d3)phenyl)ethyl)acetamide], for which the EC50 on human GPR139 receptor [1] is 17.8 nM. Also, on human GPR139 receptor [2], the Ki is 234 nM.
